Measurements taken from paper PMC8280143, “A novel dephosphorylation targeting chimera selectively promoting tau removal in tauopathies” (Signal Transduction and Targeted Therapy, 2021).
“Also recorded” adds a separate entry of the source.

What was measured:
Tau368 mice = experiment: Novel-object recognition test; format: in vivo, mouse
Method: Novel-object recognition tests were performed one day after the object-place recognition. A similar protocol was used except that object B was replaced by a novel object (object C) in the test phase, and mice preference for the novel object was measured.

tau = experiment: Hippocampal phospho-tau and total tau in 3×Tg AD mice; format: in vivo, mouse; details: 9-month 3×Tg AD mice, 5 mM, 1 μL
Method: (§1) Mice weighting 20–30 g were anesthetized with 1% pentobarbital sodium (35 mg/kg), and fixed in a stereotaxic instrument (RWD). The scalp was sterilized with iodophors and 75% ethanol, and incised along the skull midline. Holes were drilled. Adeno-associated virus or DEPTAC was injected into the dorsal DG (posterior 1.9 mm, lateral ±1.1 mm from the bregma, ventral −2.0 from the skull) or lateral ventricle (posterior 0.22 mm, lateral ±1.0 mm from the bregma, ventral −2.5 from the skull), respectively, using an automatic microinjection system (World Precision Instruments, USA) at a rate of 0.05 μL/min. The needle syringe was left in place for 5 min before withdrawal. The skin was sutured and sterilized with iodophors. Mice were placed on thermos tank for analepsia.
(§2) For 2-month male C57BL/6 mice, 10 mM FITC-labeled or unlabeled-DEPTAC were directly injected through the tail vein or lateral ventricle for the evaluation of BBB-penetrability. For 9-month 3×Tg AD mice or Tau368 (20–30 g body weight), unlabeled-DEPTAC (5 mM, 1 μL for each time) was delivered for once into the lateral ventricle through direct stereotaxic injection, or repeatedly administrated through guiding cannulas (RWD, Shenzhen, China) implanted into the lateral ventricle once every 3 days for a consecutive month to test its dephosphorylation efficiency. Mice were restricted in a custom designed device and stayed awake during drug administration, and sacrificed at 24 h post the single or last DEPTAC administration.
Cultured cells or hippocampus tissues were collected on ice, and homogenized with RIPA lysis buffer containing 50 mM Tris-HCl, 100 mM NaCl, 1% Triton X-100, 5 mM EDTA, and 1:100 PMSF, and then centrifuged at 12,000 × g for 20 min. The supernatant was collected for the analysis of soluble proteins. In some experiments, the pellets were further incubated with 8% SDS buffer at 37 °C and then ultrasound for 60 times to reach a complete resuspension for the analysis of insoluble tau. Protein concentration was measured through BCA assays (Thermo Fisher). Equal amount of protein from each sample were separated in SDS-PAGE gels, and then transferred onto nitrocellulose or 0.22 μm polyvinylidene fluoride membranes (Merck Millipore). […] Blots were visualized using ECL luminol reagent (P0018FS, Beyotime), and quantified using ImageJ software.

endogenous mouse tau = experiment: Hippocampal endogenous mouse tau in NW-administrated Tau368 mice; format: in vivo; details: 30 μg total protein
Method: as §1, §2
Cultured cells or hippocampus tissues were collected on ice, and homogenized with RIPA lysis buffer containing 50 mM Tris-HCl, 100 mM NaCl, 1% Triton X-100, 5 mM EDTA, and 1:100 PMSF, and then centrifuged at 12,000 × g for 20 min. The supernatant was collected for the analysis of soluble proteins. In some experiments, the pellets were further incubated with 8% SDS buffer at 37 °C and then ultrasound for 60 times to reach a complete resuspension for the analysis of insoluble tau. Protein concentration was measured through BCA assays (Thermo Fisher). Equal amount of protein from each sample were separated in SDS-PAGE gels, and then transferred onto nitrocellulose or 0.22 μm polyvinylidene fluoride membranes (Merck Millipore). The membranes were blocked with 5% BSA, and incubated in turn with primary and horseradish peroxidase-conjugated secondary antibodies: pS199-Tau (44734G, Invitrogen, 1:2000), pT205-Tau (11108-1, Signalway, 1:2000), pS396-Tau (11102, Signalway, 1:2000), pS404-Tau (11112, Signalway, 1:2000), AT8 (MN1020, Thermo Fisher, 1:1000), Tau5 (ab80579, Abcam, 1:1000), Tau46 (T9450, Sigma, 1:1000), PP2A-Bα (4953, Cell signaling, 1:1000), Phospho-Ser/Thr (ab17464, Abcam1:1000), Ubiquitin (ab7254, Abcam, 1:1000), MAP2 (AB5622, Millipore, 1:2000), hTau-N368 (a generous gift from Prof. Keqiang Ye, Emory University School of Medicine, 1:1000), DEPTAC (developed by Daian Biotechnology, Wuhan, China, 1:500), β-actin (ab6276, Abcam, 1:2000). HRP-conjugated goat anti-rabbit IgG (A0208, Beyotime, 1:3000), HRP-conjugated goat anti-mouse IgG (A0216, Beyotime, 1:3000). Blots were visualized using ECL luminol reagent (P0018FS, Beyotime), and quantified using ImageJ software.

[1] = intracerebroventricular, once every 3 days for a consecutive month, *p < 0.05, n = 4
[2] = NW Tau368 mice (no dox), n = 3–4

## (1) YQQYQDATADEQG, originates from the porcine β-tubulin 422–434 for recognizing and binding tau proteins.[5],[6] (2) GSGS, a linker for increasing the flexibility of the peptide.[15] (3) KKVAVVRTPPKSP, for recruiting PP2A-Bα,[16] and (4) RRRRRRRR [DEPTAC, DEPhosphorylation TArgeting Chimera; 38 amino acid residues, C185H314N72O56]
Tau368 mice; Tau368 mice treated with NW
  novel-object recognition in control mice: only limitedly affected
Tau368 mice; dox-treated Tau368 mice, 1-month DEPTAC after stopping dox, *p < 0.05, n = 10–15 mice
  novel-object recognition impairment: remarkably ameliorated; also recorded: rescued
tau; [1]
  hippocampal phospho-tau, repeated delivery: significantly reduced
  hippocampal total tau, repeated delivery: significantly reduced
tau; once, n = 4
  hippocampal phospho-tau, delivered for once: tended to decrease; also recorded: relatively limited
  hippocampal total tau, delivered for once: tended to decrease; also recorded: relatively limited
Endogenous mouse tau; [2]
  endogenous mouse tau phosphorylation at Ser199: limited effect
  endogenous mouse tau phosphorylation at Ser396: significantly downregulate
  endogenous mouse tau phosphorylation at Ser404: significantly downregulate
  endogenous mouse tau phosphorylation at Thr205: significantly downregulate
  endogenous mouse tau, AT8 epitope: limited effect
  endogenous mouse total tau: limited effect
Endogenous mouse tau; NW Tau368 mice, overall, compared with dox group
  efficiency of DEPTAC on mouse tau: relatively limited
